Data taken from PubChem BioAssay (NCI).
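Compound exposure: 48 hours, 5 concentrations, 96-well plates. TGI: total growth inhibition.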

Columns and labels:
Assay in all cases: DTP human tumour cell line panel, 48 h
MALME-3M melanoma = tested on: MALME-3M melanoma
SF-295 CNS = tested on: SF-295 CNS
NCI-H226 lung = tested on: NCI-H226 lung
HT29 colon = tested on: HT29 colon
LOX IMVI melanoma = tested on: LOX IMVI melanoma
SK-MEL-2 melanoma = tested on: SK-MEL-2 melanoma
NCI-H460 lung = tested on: NCI-H460 lung
BT-549 breast = tested on: BT-549 breast
SK-MEL-5 melanoma = tested on: SK-MEL-5 melanoma
HCC-2998 colon = tested on: HCC-2998 colon
SF-539 CNS = tested on: SF-539 CNS
MDA-MB-231 breast = tested on: MDA-MB-231 breast
HOP-92 NSCLC = tested on: HOP-92 NSCLC
SNB-75 CNS = tested on: SNB-75 CNS
HCT-116 colon = tested on: HCT-116 colon
MDA-MB-435 = tested on: MDA-MB-435
KM12 colon = tested on: KM12 colon
NCI-H522 lung = tested on: NCI-H522 lung
K-562 leukemia = tested on: K-562 leukemia
ACHN renal = tested on: ACHN renal
UACC-257 melanoma = tested on: UACC-257 melanoma
MOLT-4 leukemia = tested on: MOLT-4 leukemia
A549 NSCLC = tested on: A549 NSCLC
COLO 205 colon = tested on: COLO 205 colon
U251 CNS = tested on: U251 CNS
UACC-62 melanoma = tested on: UACC-62 melanoma
SK-MEL-28 melanoma = tested on: SK-MEL-28 melanoma
SK-OV-3 ovarian = tested on: SK-OV-3 ovarian
SW-620 colon = tested on: SW-620 colon
HL-60(TB) leukemia = tested on: HL-60(TB) leukemia
SF-268 CNS = tested on: SF-268 CNS
SR leukemia = tested on: SR leukemia
EKVX NSCLC = tested on: EKVX NSCLC
CAKI-1 renal = tested on: CAKI-1 renal
DU-145 prostate = tested on: DU-145 prostate
M14 melanoma = tested on: M14 melanoma
OVCAR-8 ovarian = tested on: OVCAR-8 ovarian
OVCAR-3 ovarian = tested on: OVCAR-3 ovarian
OVCAR-4 ovarian = tested on: OVCAR-4 ovarian
A498 renal = tested on: A498 renal
MCF7 breast = tested on: MCF7 breast
UO-31 renal = tested on: UO-31 renal
HOP-62 NSCLC = tested on: HOP-62 NSCLC
NCI-H23 lung = tested on: NCI-H23 lung
CCRF-CEM leukemia = tested on: CCRF-CEM leukemia
786-0 renal = tested on: 786-0 renal
SN12C renal = tested on: SN12C renal
SNB-19 CNS = tested on: SNB-19 CNS
OVCAR-5 ovarian = tested on: OVCAR-5 ovarian
MDA-N = tested on: MDA-N
NCI/ADR-RES ovarian = tested on: NCI/ADR-RES ovarian
T-47D breast = tested on: T-47D breast
TK-10 renal = tested on: TK-10 renal
RXF 393 renal = tested on: RXF 393 renal
HCT-15 colon = tested on: HCT-15 colon
PC-3 prostate = tested on: PC-3 prostate

Which TGI (MALME-3M melanoma) does the source give for `O=C(N(C1=CCCC1)N(c1ccccc1)c1ccccc1)C(F)(F)F` here?
Its TGI is 14.4 µM.

And the TGI (SF-295 CNS)?
Its TGI is 77 µM.

And the TGI (NCI-H226 lung)?
The TGI was 42.3 µM.

What about the TGI (HT29 colon) of the same compound?
The TGI was 42.6 µM.

What about the TGI (LOX IMVI melanoma) of the same compound?
The TGI was 31.5 µM.

And the TGI (SK-MEL-2 melanoma)?
The TGI was 35 µM.

And the TGI (NCI-H460 lung)?
The TGI was 35.7 µM.

And the TGI (BT-549 breast)?
The TGI was 94.8 µM.

And the TGI (SK-MEL-5 melanoma)?
The TGI was 35.6 µM.

And the TGI (HCC-2998 colon)?
Its TGI is 33.8 µM.

What about the TGI (SF-539 CNS) of the same compound?
Its TGI is 45.9 µM.

What about the TGI (MDA-MB-231 breast) of the same compound?
The TGI was 34.3 µM.

What about the TGI (HOP-92 NSCLC) of the same compound?
Its TGI is 33.9 µM.

What about the TGI (SNB-75 CNS) of the same compound?
Its TGI is > 100 µM.

What about the TGI (HCT-116 colon) of the same compound?
The TGI was 63.5 µM.

And the TGI (MDA-MB-435)?
Its TGI is 50.4 µM.

What about the TGI (KM12 colon) of the same compound?
The TGI was 43.9 µM.

What about the TGI (NCI-H522 lung) of the same compound?
Its TGI is 25.3 µM.

What about the TGI (K-562 leukemia) of the same compound?
Its TGI is 68.7 µM.

And the TGI (ACHN renal)?
Its TGI is 38.8 µM.

And the TGI (UACC-257 melanoma)?
The TGI was 58.9 µM.

And the TGI (MOLT-4 leukemia)?
Its TGI is 76.2 µM.

What about the TGI (A549 NSCLC) of the same compound?
Its TGI is 98.4 µM.

What about the TGI (COLO 205 colon) of the same compound?
The TGI was 40.6 µM.

And the TGI (U251 CNS)?
The TGI was 42.2 µM.

What about the TGI (UACC-62 melanoma) of the same compound?
Its TGI is > 100 µM.

What about the TGI (SK-MEL-28 melanoma) of the same compound?
Its TGI is > 100 µM.

And the TGI (SK-OV-3 ovarian)?
The TGI was > 100 µM.

What about the TGI (SW-620 colon) of the same compound?
The TGI was 66.8 µM.

What about the TGI (HL-60(TB) leukemia) of the same compound?
The TGI was 46.8 µM.

What about the TGI (SF-268 CNS) of the same compound?
Its TGI is 48.7 µM.

What about the TGI (SR leukemia) of the same compound?
Its TGI is 90.4 µM.

What about the TGI (EKVX NSCLC) of the same compound?
The TGI was 39.1 µM.

And the TGI (CAKI-1 renal)?
Its TGI is 80.4 µM.

What about the TGI (DU-145 prostate) of the same compound?
The TGI was 81.5 µM.

What about the TGI (M14 melanoma) of the same compound?
The TGI was 74.5 µM.

And the TGI (OVCAR-8 ovarian)?
The TGI was > 100 µM.

What about the TGI (OVCAR-3 ovarian) of the same compound?
The TGI was 44.4 µM.

What about the TGI (OVCAR-4 ovarian) of the same compound?
Its TGI is > 100 µM.

What about the TGI (A498 renal) of the same compound?
The TGI was > 100 µM.

And the TGI (MCF7 breast)?
The TGI was 44.6 µM.

What about the TGI (UO-31 renal) of the same compound?
Its TGI is 75.6 µM.

And the TGI (HOP-62 NSCLC)?
Its TGI is 69.4 µM.

And the TGI (NCI-H23 lung)?
The TGI was > 100 µM.

What about the TGI (CCRF-CEM leukemia) of the same compound?
Its TGI is 91.8 µM.

What about the TGI (786-0 renal) of the same compound?
The TGI was 96.5 µM.

What about the TGI (SN12C renal) of the same compound?
The TGI was 78.7 µM.

What about the TGI (SNB-19 CNS) of the same compound?
Its TGI is > 100 µM.

And the TGI (OVCAR-5 ovarian)?
Its TGI is > 100 µM.

And the TGI (MDA-N)?
The TGI was 65.8 µM.

And the TGI (NCI/ADR-RES ovarian)?
The TGI was 87.9 µM.

And the TGI (T-47D breast)?
The TGI was 65.8 µM.

And the TGI (TK-10 renal)?
The TGI was > 100 µM.

And the TGI (RXF 393 renal)?
The TGI was 38.8 µM.

And the TGI (HCT-15 colon)?
Its TGI is 51.8 µM.

And the TGI (PC-3 prostate)?
Its TGI is > 100 µM.
